Test results published in article PMC4564450, “Oral and inhaled p38 MAPK inhibitors: effects on inhaled LPS challenge in healthy subjects” (European Journal of Clinical Pharmacology, 2015).

Key:
[1] = Drug concentration in sputum supernatant; assay type: in vivo, human; conditions: study 2, ten subjects, PF-03715455 inhaled dose, PH-797804 oral dose
[2] = Safety: treatment emergent adverse events; assay type: in vivo, human; conditions: for safety and tolerability: single doses, healthy subjects, studies 1 and 2
Protocol: Safety was assessed in these studies by physical examinations, haematology and biochemistry measurements, ECG analysis and reporting of any adverse events.
Summary of Number ofSubjects Experiencing Treatment EmergentAdverse Events by MedDRA System Organ Class

p38 MAPK = conditions: no reference given; read-out: enzyme IC50; cited from earlier work
[3] = cited from earlier work
[4] = study 2, PF-03715455 20mg (n=27), PH-797804 30mg (n=23)
[5] = study 2, PF-03715455 20mg (n=27), PH-797804 30mg (n=23), hangover (PF-03715455), loss of libido and insomnia (PH-797804)

Row | Structure (SMILES) | geometric mean sputum concentration [1] | sputum concentration, range [1] | safety and tolerability [2] | Number of subjects with treatment emergent AE: Eye Disorders [2, 4] | Number of subjects with treatment emergent AE: Gastrointestinal Disorders [2, 4] | Number of subjects with treatment emergent AE: General Disorders and Administration Site Conditions [2, 4] | Number of subjects with treatment emergent AE: Immune system disorders [2, 4] | Number of subjects with treatment emergent AE: Injury, Poisoning and Procedural Complications [2, 4] | Number of subjects with treatment emergent AE: Musculoskeletal and Connective tissue disorders [2, 4] | Number of subjects with treatment emergent AE: Nervous system disorders [2, 4] | Number of subjects with treatment emergent AE: Respiratory, thoracic and mediastinal disorders [2, 4] | Number of subjects with treatment emergent AE: Skin and subcutaneous tissue disorders [2, 4] | Number of subjects with treatment emergent AE: Vascular disorders [2, 4] | Number of subjects with treatment emergent AE: Psychiatric disorders [2, 5] | other results
1 | CC(C)(C)c1cc(NC(=O)NCc2ccccc2Sc2ccc3nnc(-c4ccccc4SCCO)n3c2)n(-c2ccc(O)c(Cl)c2)n1 [PF-03715455] | 20 nM | 4 to 73 nM | safe and generally well tolerated | 0 | 2 | 3 | 0 | 0 | 0 | 5 | 2 | 1 | 1 | 1 | AE requiring withdrawal ([2]; study 2, one subject, 5 days after dosing, investigator did not consider it related): cellulitis; IC50 (p38 MAPK): 0.005 to 0.05 nM
2 | CNC(=O)c1ccc(C)c(-n2c(C)cc(OCc3ccc(F)cc3F)c(Br)c2=O)c1 [PH-797804] | 4 nM | 2 to 7 nM | safe and generally well tolerated | 1 | 0 | 3 | 0 | 1 | 0 | 8 | 3 | 0 | 0 | 2 | Number of subjects with treatment emergent AE: Eye Disorders ([2]; study 1, PH-797804 30mg (n=17)): 1; Number of subjects with treatment emergent AE: Gastrointestinal Disorders ([2]; study 1, PH-797804 30mg (n=17)): 0; Number of subjects with treatment emergent AE: General Disorders and Administration Site Conditions ([2]; study 1, PH-797804 30mg (n=17)): 1; Number of subjects with treatment emergent AE: Infections and infestations ([2]; study 1, PH-797804 30mg (n=17)): 1; Number of subjects with treatment emergent AE: Injury, Poisoning and Procedural Complications ([2]; study 1, PH-797804 30mg (n=17)): 1; Number of subjects with treatment emergent AE: Investigation (raised blood potassium) ([2]; study 1, PH-797804 30mg (n=17)): 0; Number of subjects with treatment emergent AE: Musculoskeletal and Connective tissue disorders ([2]; study 1, PH-797804 30mg (n=17)): 1; Number of subjects with treatment emergent AE: Nervous system disorders ([2]; study 1, PH-797804 30mg (n=17)): 2; Number of subjects with treatment emergent AE: Respiratory, thoracic and mediastinal disorders ([2]; study 1, PH-797804 30mg (n=17)): 0; Number of subjects with treatment emergent AE: Skin and subcutaneous tissue disorders ([2]; study 1, PH-797804 30mg (n=17)): 0; Number of subjects with treatment emergent AE: Psychiatric disorders ([2]; study 1, PH-797804 30mg (n=17), event was insomnia lasting 1 hr): 1; Number of subjects with treatment emergent AE: Infections and infestations [2, 4]: 2; improvement of FEV1 ([3]; COPD patients treated for 6 weeks): 93 mL; pulmonary function ([3]; COPD trial): clinically significant improvement; tolerability in COPD trials ([3]; oral, up to 24-week duration): well tolerated
